Test results taken from PubChem BioAssay (NCI).
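Results reflect a 48-hour exposure of cells in 96-well plates to compound at five concentrations. TGI is the concentration that stops growth completely.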

Tests used:
Assay in all cases: NCI tumour cell line growth inhibition, 48 h
[1] = test system: HCC-2998 colon
[2] = test system: SK-MEL-28 melanoma
[3] = test system: SNB-19 CNS
[4] = test system: MDA-N
[5] = test system: UACC-62 melanoma
[6] = test system: SK-OV-3 ovarian
[7] = test system: NCI-H23 lung
[8] = test system: RPMI-8226 leukemia
[9] = test system: MDA-MB-435
[10] = test system: NCI-H460 lung
[11] = test system: COLO 205 colon
[12] = test system: NCI-H226 lung
[13] = test system: UO-31 renal
[14] = test system: 786-0 renal
[15] = test system: SW-620 colon
[16] = test system: SF-539 CNS
[17] = test system: HOP-92 NSCLC
[18] = test system: SF-268 CNS
[19] = test system: U251 CNS
[20] = test system: SNB-75 CNS
[21] = test system: EKVX NSCLC
[22] = test system: UACC-257 melanoma
[23] = test system: HT29 colon
[24] = test system: PC-3 prostate
[25] = test system: M14 melanoma
[26] = test system: MDA-MB-231 breast
[27] = test system: LOX IMVI melanoma
[28] = test system: MOLT-4 leukemia
[29] = test system: HCT-15 colon
[30] = test system: TK-10 renal
[31] = test system: CAKI-1 renal
[32] = test system: HL-60(TB) leukemia
[33] = test system: MCF7 breast
[34] = test system: SK-MEL-5 melanoma
[35] = test system: A549 NSCLC
[36] = test system: OVCAR-8 ovarian
[37] = test system: KM12 colon
[38] = test system: DU-145 prostate
[39] = test system: A498 renal
[40] = test system: OVCAR-5 ovarian
[41] = test system: SN12C renal
[42] = test system: RXF 393 renal
[43] = test system: T-47D breast
[44] = test system: HOP-62 NSCLC
[45] = test system: OVCAR-3 ovarian
[46] = test system: CCRF-CEM leukemia
[47] = test system: HCT-116 colon
[48] = test system: MALME-3M melanoma
[49] = test system: NCI/ADR-RES ovarian
[50] = test system: SK-MEL-2 melanoma
[51] = test system: BT-549 breast
[52] = test system: SF-295 CNS
[53] = test system: IGROV1 ovarian
[54] = test system: HS 578T breast
[55] = test system: ACHN renal
[56] = test system: K-562 leukemia
[57] = test system: OVCAR-4 ovarian
[58] = test system: NCI-H522 lung
[59] = test system: SR leukemia

SMILES: O/N=C(\CC(O)(C(F)(F)F)C(F)(F)F)c1cccs1
- TGI [1]: > 10 µM
- TGI [2]: > 10 µM
- TGI [3]: > 10 µM
- TGI [4]: > 10 µM
- TGI [5]: > 10 µM
- TGI [6]: > 10 µM
- TGI [7]: > 10 µM
- TGI [8]: > 10 µM
- TGI [9]: > 10 µM
- TGI [10]: > 10 µM
- TGI [11]: > 10 µM
- TGI [12]: > 10 µM
- TGI [13]: > 10 µM
- TGI [14]: > 10 µM
- TGI [15]: > 10 µM
- TGI [16]: > 10 µM
- TGI [17]: > 10 µM
- TGI [18]: > 10 µM
- TGI [19]: > 10 µM
- TGI [20]: > 10 µM
- TGI [21]: > 10 µM
- TGI [22]: > 10 µM
- TGI [23]: > 10 µM
- TGI [24]: > 10 µM
- TGI [25]: > 10 µM
- TGI [26]: > 10 µM
- TGI [27]: > 10 µM
- TGI [28]: > 10 µM
- TGI [29]: > 10 µM
- TGI [30]: > 10 µM
- TGI [31]: > 10 µM
- TGI [32]: > 10 µM
- TGI [33]: > 10 µM
- TGI [34]: > 10 µM
- TGI [35]: > 10 µM
- TGI [36]: > 10 µM
- TGI [37]: > 10 µM
- TGI [38]: > 10 µM
- TGI [39]: > 10 µM
- TGI [40]: > 10 µM
- TGI [41]: > 10 µM
- TGI [42]: > 10 µM
- TGI [43]: > 10 µM
- TGI [44]: > 10 µM
- TGI [45]: > 10 µM
- TGI [46]: > 10 µM
- TGI [47]: > 10 µM
- TGI [48]: > 10 µM
- TGI [49]: > 10 µM
- TGI [50]: > 10 µM
- TGI [51]: > 10 µM
- TGI [52]: > 10 µM
- TGI [53]: > 10 µM
- TGI [54]: > 10 µM
- TGI [55]: > 10 µM
- TGI [56]: > 10 µM
- TGI [57]: > 10 µM
- TGI [58]: > 10 µM

SMILES: C=C(C)C1CC[C@@](C)(O)[C@H](C#N)C1 (stereo partly specified)
- TGI [1]: > 100 µM
- TGI [2]: > 100 µM
- TGI [3]: > 100 µM
- TGI [4]: > 100 µM
- TGI [5]: > 100 µM
- TGI [6]: > 100 µM
- TGI [7]: > 100 µM
- TGI [59]: > 100 µM
- TGI [8]: > 100 µM
- TGI [9]: > 100 µM
- TGI [10]: > 100 µM
- TGI [11]: > 100 µM
- TGI [12]: > 100 µM
- TGI [13]: > 100 µM
- TGI [14]: > 100 µM
- TGI [15]: > 100 µM
- TGI [16]: > 100 µM
- TGI [18]: > 100 µM
- TGI [19]: > 100 µM
- TGI [20]: > 100 µM
- TGI [21]: > 100 µM
- TGI [22]: > 100 µM
- TGI [23]: > 100 µM
- TGI [24]: > 100 µM
- TGI [25]: > 100 µM
- TGI [26]: > 100 µM
- TGI [27]: > 100 µM
- TGI [28]: > 100 µM
- TGI [29]: > 100 µM
- TGI [30]: > 100 µM
- TGI [31]: > 100 µM
- TGI [32]: > 100 µM
- TGI [33]: > 100 µM
- TGI [34]: > 100 µM
- TGI [35]: > 100 µM
- TGI [36]: > 100 µM
- TGI [37]: > 100 µM
- TGI [38]: > 100 µM
- TGI [39]: > 100 µM
- TGI [40]: > 100 µM
- TGI [41]: > 100 µM
- TGI [42]: > 100 µM
- TGI [43]: > 100 µM
- TGI [44]: > 100 µM
- TGI [45]: > 100 µM
- TGI [46]: > 100 µM
- TGI [47]: > 100 µM
- TGI [48]: > 100 µM
- TGI [50]: > 100 µM
- TGI [51]: > 100 µM
- TGI [52]: > 100 µM
- TGI [54]: > 100 µM
- TGI [55]: > 100 µM
- TGI [56]: > 100 µM
- TGI [57]: > 100 µM
- TGI [58]: > 100 µM

SMILES: O=C(OCc1ccccc1)C(Cc1ccc(OCc2ccccc2)cn1)NC(=O)C(F)(F)F (stereo unspecified)
- TGI [1]: > 100 µM
- TGI [2]: > 100 µM
- TGI [3]: > 100 µM
- TGI [4]: > 100 µM
- TGI [7]: > 100 µM
- TGI [59]: > 100 µM
- TGI [8]: > 100 µM
- TGI [9]: > 100 µM
- TGI [10]: > 100 µM
- TGI [11]: > 100 µM
- TGI [12]: > 100 µM
- TGI [13]: > 100 µM
- TGI [14]: > 100 µM
- TGI [15]: > 100 µM
- TGI [16]: > 100 µM
- TGI [17]: > 100 µM
- TGI [18]: > 100 µM
- TGI [19]: > 100 µM
- TGI [20]: 98.8 µM
- TGI [21]: > 100 µM
- TGI [22]: > 100 µM
- TGI [23]: > 100 µM
- TGI [24]: > 100 µM
- TGI [26]: > 100 µM
- TGI [27]: > 100 µM
- TGI [28]: > 100 µM
- TGI [29]: > 100 µM
- TGI [30]: > 100 µM
- TGI [31]: > 100 µM
- TGI [32]: > 100 µM
- TGI [34]: > 100 µM
- TGI [35]: > 100 µM
- TGI [36]: > 100 µM
- TGI [37]: > 100 µM
- TGI [38]: > 100 µM
- TGI [39]: > 100 µM
- TGI [40]: > 100 µM
- TGI [41]: > 100 µM
- TGI [42]: > 100 µM
- TGI [44]: > 100 µM
- TGI [45]: > 100 µM
- TGI [47]: > 100 µM
- TGI [48]: > 100 µM
- TGI [49]: > 100 µM
- TGI [51]: > 100 µM
- TGI [52]: > 100 µM
- TGI [53]: > 100 µM
- TGI [54]: > 100 µM
- TGI [55]: > 100 µM
- TGI [56]: > 100 µM
- TGI [57]: > 100 µM
- TGI [58]: > 100 µM
